Source: ChEMBL document CHEMBL1151578, “Benzopyran-4-carboxamide K+ channel openers” (Bioorg Med Chem Lett, 1993)

How the values were obtained:
Rattus norvegicus [1] = species: Rattus norvegicus; experiment: Relaxation of rat aorta smooth muscle; assay type: functional, Muscle tissue
Rattus norvegicus [2] = species: Rattus norvegicus; experiment: Relaxation of rat aorta smooth muscle precontracted with 30 mM KCl (Negative logarithm of molar concentration required); assay type: functional, organism-based; conditions: Muscle tissue

| Compound | EC50 (Rattus norvegicus [2]) [nM] | Intrinsic activity (Rattus norvegicus [1]) [%] |
| --- | --- | --- |
| CC1(C)C=C(C(=O)NCCC#N)c2cc([N+](=O)[O-])ccc2O1 | – | 73.1 |
| CCNC(=O)C1=CC(C)(C)Oc2ccc([N+](=O)[O-])cc21 | 4.57 | 80.5 |
| CNC(=O)C1=CC(C)(C)Oc2ccc([N+](=O)[O-])cc21 | – | 61 |
| CC1(C)C=C(C(=O)NCC2CC2)c2cc([N+](=O)[O-])ccc2O1 | 6.61 | 89.3 |
| CNC(=O)C1=CC(C)(C)Oc2ccc(C#N)cc21 | – | 66.6 |
| CC(N/C(=N\C#N)Nc1ccncc1)C(C)(C)C (stereo unspecified) [PINACIDIL ANHYDROUS] | – | 91.9 |

Further molecules by falling EC50 (Rattus norvegicus [2]), results first:

| EC50 (Rattus norvegicus [2]) [nM] | Compound | Intrinsic activity (Rattus norvegicus [1]) [%] |
| --- | --- | --- |
| 363 | CC1(C)C=C(C(N)=O)c2cc([N+](=O)[O-])ccc2O1 | 79.8 |
| 186 | CC(C)NC(=O)C1=CC(C)(C)Oc2ccc([N+](=O)[O-])cc21 | 77.6 |
| 182 | CC1(C)C=C(C(=O)NCCO)c2cc([N+](=O)[O-])ccc2O1 | 71.8 |
| 170 | CC1(C)Oc2ccc(C#N)cc2[C@H](N2CCCC2=O)[C@H]1O (single isomer, unassigned) [(-)-CROMAKALIM] | 74.7 |
| 32.4 | CC1(C)C=C(C(=O)NC2CC2)c2cc([N+](=O)[O-])ccc2O1 | 78 |
| 21.9 | CCCCNC(=O)C1=CC(C)(C)Oc2ccc([N+](=O)[O-])cc21 | 83.2 |
| 20.4 | CC1(C)C=C(C(=O)NCCF)c2cc([N+](=O)[O-])ccc2O1 | 81.6 |
| 7.94 | C#CCNC(=O)C1=CC(C)(C)Oc2ccc([N+](=O)[O-])cc21 | 80.2 |
| 5.75 | CCCNC(=O)C1=CC(C)(C)Oc2ccc([N+](=O)[O-])cc21 | 74.1 |
